Test results taken from patent publication US20230139171A1 (SITA Information Networking Computing UK Limited, priority 2019, published 2023).

Experiments:
Assay type in all cases: cell-based
[1] = molecular target: T1, human TLR7 (Homo sapiens, UniProt Q9NYK1); assay: TLR7 inhibition reporter assay (HEK-Blue cells, SEAP reporter, gardiquimod stimulation); settings: HEK-Blue cells overexpressing human TLR7, SEAP reporter, gardiquimod 7.5 μM; read-out: TLR7 IC50
T1 construct: host or cells: HEK-Blue cells
T1 sequence (Q9NYK1 27-1049): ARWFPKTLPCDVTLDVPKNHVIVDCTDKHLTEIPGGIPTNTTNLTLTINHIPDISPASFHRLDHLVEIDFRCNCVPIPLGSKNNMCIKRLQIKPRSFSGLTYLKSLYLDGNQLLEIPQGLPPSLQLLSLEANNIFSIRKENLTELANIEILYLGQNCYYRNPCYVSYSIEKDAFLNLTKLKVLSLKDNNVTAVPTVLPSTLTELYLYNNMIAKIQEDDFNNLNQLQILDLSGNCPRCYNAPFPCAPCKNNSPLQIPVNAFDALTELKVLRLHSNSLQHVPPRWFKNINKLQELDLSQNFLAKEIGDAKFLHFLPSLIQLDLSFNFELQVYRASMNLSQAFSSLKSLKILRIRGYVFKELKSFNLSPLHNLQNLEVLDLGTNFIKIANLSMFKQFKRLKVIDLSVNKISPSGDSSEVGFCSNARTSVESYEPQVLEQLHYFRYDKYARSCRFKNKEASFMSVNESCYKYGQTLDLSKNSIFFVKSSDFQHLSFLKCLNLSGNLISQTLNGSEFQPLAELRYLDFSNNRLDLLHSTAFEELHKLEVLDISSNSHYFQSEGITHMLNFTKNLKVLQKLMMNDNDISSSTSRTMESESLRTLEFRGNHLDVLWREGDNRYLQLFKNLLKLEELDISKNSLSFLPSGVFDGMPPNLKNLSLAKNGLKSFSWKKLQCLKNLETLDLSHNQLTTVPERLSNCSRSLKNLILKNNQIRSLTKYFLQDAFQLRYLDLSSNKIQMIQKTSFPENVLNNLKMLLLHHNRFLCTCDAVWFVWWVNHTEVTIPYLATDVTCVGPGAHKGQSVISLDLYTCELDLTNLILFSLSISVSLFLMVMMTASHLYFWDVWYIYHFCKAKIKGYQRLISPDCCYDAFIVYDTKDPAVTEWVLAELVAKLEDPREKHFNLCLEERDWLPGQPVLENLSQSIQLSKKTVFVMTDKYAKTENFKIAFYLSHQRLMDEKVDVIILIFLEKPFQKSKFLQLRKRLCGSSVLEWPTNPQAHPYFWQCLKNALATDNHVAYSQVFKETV
Outline: (§1)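 Compound treatment: 30 min, RT, 0.05 nM–50 μM final. Agonist: TLR7 gardiquimod 7.5 μM; TLR8 R848 15.9 μM; TLR9 ODN2006 5 nM. Incubation 22 h, 37 °C, 5% CO2. Readout SEAP, HEK-Blue Detection.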

[2] = molecular target: T2, human TLR8 (Homo sapiens, UniProt Q9NR97); assay: TLR8 inhibition reporter assay (HEK-Blue cells, SEAP reporter, R848 stimulation); settings: HEK-Blue cells overexpressing human TLR8, SEAP reporter, R848 15.9 μM; read-out: TLR8 IC50
T2 construct: host or cells: HEK-Blue cells
T2 sequence (Q9NR97 27-1041): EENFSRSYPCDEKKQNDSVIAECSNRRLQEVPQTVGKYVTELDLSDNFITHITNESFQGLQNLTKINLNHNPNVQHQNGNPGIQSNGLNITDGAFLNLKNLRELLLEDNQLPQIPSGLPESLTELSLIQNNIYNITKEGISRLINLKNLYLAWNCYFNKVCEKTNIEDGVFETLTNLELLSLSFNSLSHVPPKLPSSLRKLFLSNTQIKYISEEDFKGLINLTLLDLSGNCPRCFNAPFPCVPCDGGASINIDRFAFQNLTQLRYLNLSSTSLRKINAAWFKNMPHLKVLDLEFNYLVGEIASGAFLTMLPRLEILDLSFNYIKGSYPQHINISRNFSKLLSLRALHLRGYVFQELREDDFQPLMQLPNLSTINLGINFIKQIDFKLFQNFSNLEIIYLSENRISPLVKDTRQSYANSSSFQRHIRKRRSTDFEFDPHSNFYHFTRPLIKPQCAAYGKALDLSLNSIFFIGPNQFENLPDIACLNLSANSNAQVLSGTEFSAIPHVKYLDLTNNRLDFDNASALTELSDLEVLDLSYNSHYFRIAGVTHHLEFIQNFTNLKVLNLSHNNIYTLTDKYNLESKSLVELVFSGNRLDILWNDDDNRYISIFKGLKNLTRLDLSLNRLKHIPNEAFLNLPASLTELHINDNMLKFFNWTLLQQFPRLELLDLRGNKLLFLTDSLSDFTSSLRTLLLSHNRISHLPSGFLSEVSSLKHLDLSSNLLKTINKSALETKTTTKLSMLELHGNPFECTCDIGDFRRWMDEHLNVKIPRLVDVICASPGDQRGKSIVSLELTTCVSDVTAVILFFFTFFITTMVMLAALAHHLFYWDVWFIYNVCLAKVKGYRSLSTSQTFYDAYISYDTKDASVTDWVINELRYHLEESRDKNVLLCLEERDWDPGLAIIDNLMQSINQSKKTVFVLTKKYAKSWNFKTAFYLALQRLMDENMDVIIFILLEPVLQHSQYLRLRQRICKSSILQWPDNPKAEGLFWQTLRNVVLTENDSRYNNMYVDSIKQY
Outline: as §1

[3] = molecular target: T3, human TLR9 (Homo sapiens, UniProt Q9NR96); assay: TLR9 inhibition reporter assay (HEK-Blue cells, SEAP reporter, ODN2006 stimulation); settings: HEK-Blue cells overexpressing human TLR9, SEAP reporter, ODN2006 5 nM
T3 construct: host or cells: HEK-Blue cells
T3 sequence (Q9NR96 26-1032): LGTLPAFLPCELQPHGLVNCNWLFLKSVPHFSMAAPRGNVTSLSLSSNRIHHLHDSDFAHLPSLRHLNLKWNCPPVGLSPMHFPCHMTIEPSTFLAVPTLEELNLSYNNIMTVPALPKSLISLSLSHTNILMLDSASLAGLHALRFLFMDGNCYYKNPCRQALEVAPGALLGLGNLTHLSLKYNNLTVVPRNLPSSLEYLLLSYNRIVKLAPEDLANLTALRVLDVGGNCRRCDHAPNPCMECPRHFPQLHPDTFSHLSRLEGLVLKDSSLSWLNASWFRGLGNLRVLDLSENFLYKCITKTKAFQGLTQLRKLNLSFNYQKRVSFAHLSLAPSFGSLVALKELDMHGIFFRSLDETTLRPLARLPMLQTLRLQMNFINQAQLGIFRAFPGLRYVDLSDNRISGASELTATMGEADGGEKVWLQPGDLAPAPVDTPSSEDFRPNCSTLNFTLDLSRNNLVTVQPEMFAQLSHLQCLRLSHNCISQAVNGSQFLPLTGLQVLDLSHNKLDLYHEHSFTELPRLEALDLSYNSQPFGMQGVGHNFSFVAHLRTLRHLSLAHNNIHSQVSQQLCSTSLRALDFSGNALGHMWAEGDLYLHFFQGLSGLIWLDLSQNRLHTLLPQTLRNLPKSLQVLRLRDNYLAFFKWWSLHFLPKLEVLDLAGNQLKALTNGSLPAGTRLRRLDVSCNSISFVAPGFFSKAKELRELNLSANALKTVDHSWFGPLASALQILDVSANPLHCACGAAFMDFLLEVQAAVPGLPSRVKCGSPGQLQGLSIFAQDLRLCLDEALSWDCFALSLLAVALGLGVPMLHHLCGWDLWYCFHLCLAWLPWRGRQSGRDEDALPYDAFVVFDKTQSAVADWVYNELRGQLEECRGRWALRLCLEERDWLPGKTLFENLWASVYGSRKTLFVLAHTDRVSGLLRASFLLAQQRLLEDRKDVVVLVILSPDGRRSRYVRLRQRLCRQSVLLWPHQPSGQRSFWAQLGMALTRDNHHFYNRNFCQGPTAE
Outline: as §1

Structure (SMILES) | IC50 [1] [nM] | IC50 [2] [nM] | IC50 [3] [nM]
Cc1c(-c2[nH]c3sc(C4CCC(N5CC(O)(C(F)(F)F)C5)CC4)nc3c2C(C)C)cn(C)c(=O)c1C (single isomer, unassigned) [Example 268, 5-(2-(4-(3-hydroxy-3-(trifluoromethyl)azetidin-1-yl)cyclohexyl)-6-isopropyl-4H-pyrrolo[3,2-d]thiazol-5-yl)-1,3,4-trimethylpyridin-2(1H)-one] | 41.1 | 65.1 | > 50000
Cc1c(-c2[nH]c3sc(N4CC5(CN(CC(C)C)C5)C4)nc3c2C(C)C)cn2ncnc2c1C [Example 300, 5-(7,8-dimethyl-[1,2,4]triazolo[1,5-a]pyridin-6-yl)-2-(6-isobutyl-2,6-diazaspiro[3.3]heptan-2-yl)-6-isopropyl-4H-pyrrolo[3,2-d]thiazole] | 10.7 | 3.24 | 10100
COc1cc(-c2[nH]c3sc(C4CCC(N5CCNC(=O)C5)CC4)nc3c2C(C)C)cn2ncnc12 (single isomer, unassigned) [Example 120, 4-(4-(6-isopropyl-5-(8-methoxy-[1,2,4]triazolo[1,5-a]pyridin-6-yl)-4H-pyrrolo[3,2-d]thiazol-2-yl)cyclohexyl) piperazin-2-one] | 4.19 | 16.7 | > 50000
COc1cc(-c2[nH]c3sc(C4CCC(N5CC[C@@H](NC(C)=O)C5)CC4)nc3c2C(C)C)cn2ncnc12 (single isomer, unassigned) [Example 100] | 78.9 | 114 | 6400
Cc1c(-c2[nH]c3sc(N4CCN(C)C[C@H]4C)nc3c2C(C)C)cn2ncnc2c1C [Example 319, (R)-5-(7,8-dimethyl-[1,2,4]triazolo[1,5-a]pyridin-6-yl)-2-(2,4-dimethylpiperazin-1-yl)-6-isopropyl-4H-pyrrolo[3,2-d]thiazole] | 3.84 | 0.53 | 19400
Cc1cc2ncnn2cc1-c1[nH]c2sc(C3CCC(NC4(C)COC4)CC3)nc2c1C(C)C (single isomer, unassigned) [Example 145, N-(4-(6-isopropyl-5-(7-methyl-[1,2,4]triazolo[1,5-a]pyridin-6-yl)-4H-pyrrolo[3,2-d]thiazol-2-yl)cyclohexyl)-3-methyloxetan-3-amine] | 60.3 | 41.6 | > 50000
Cc1c(-c2[nH]c3sc(N4CCN(CC(C)(C)O)C[C@H]4C)nc3c2C(C)C)cn2ncnc2c1C [Example 325, (R)-1-(4-(5-(7,8-dimethyl-[1,2,4]triazolo[1,5-a]pyridin-6-yl)-6-isopropyl-4H-pyrrolo[3,2-d]thiazol-2-yl)-3-methylpiperazin-1-yl)-2-methylpropan-2-ol] | 19 | 0.19 | > 50000
COc1cc(-c2[nH]c3sc(C4CCC(N(C)C(C)C)CC4)nc3c2C(C)C)cn2ncnc12 (single isomer, unassigned) [Example 88, N-isopropyl-4-(6-isopropyl-5-(8-methoxy-[1,2,4]triazolo[1,5-a]pyridin-6-yl)-4H-pyrrolo[3,2-d]thiazol-2-yl)-N-methylcyclohexan-1-amine] | 0.81 | 1.84 | 4450

More lines, in order of falling IC50 [1], values ahead:

IC50 [1] [nM] | IC50 [2] [nM] | IC50 [3] [nM] | Structure (SMILES)
46.8 | 43.6 | 43300 | Cc1c(-c2[nH]c3sc(C4CCC(NC5CCOCC5)CC4)nc3c2C(C)C)cn(C)c(=O)c1C (single isomer, unassigned) [Example 250, 5-(6-isopropyl-2-(4-((tetrahydro-2H-pyran-4-yl)amino)cyclohexyl)-4H-pyrrolo[3,2-d]thiazol-5-yl)-1,3,4-trimethylpyridin-2(1H)-one]
4.69 | 43.6 | > 50000 | COc1cc(-c2[nH]c3sc(C4CCC(N5CCS(=O)(=O)CC5)CC4)nc3c2C(C)C)cn2ncnc12 (single isomer, unassigned) [Example 82, 4-(4-(6-isopropyl-5-(8-methoxy-[1,2,4]triazolo[1,5-a]pyridin-6-yl)-4H-pyrrolo[3,2-d]thiazol-2-yl)cyclohexyl)thiomorpholine 1,1-dioxide]
2.66 | 17.5 | 6910 | COc1cc(-c2[nH]c3sc(C4CCC(NCC(C)(C)O)CC4)nc3c2C(C)C)cn2ncnc12 (single isomer, unassigned) [Example 85, 1-((4-(6-isopropyl-5-(8-methoxy-[1,2,4]triazolo[1,5-a]pyridin-6-yl)-4H-pyrrolo[3,2-d]thiazol-2-yl)cyclohexyl)amino)-2-methylpropan-2-ol]
2.41 | 5.3 | 5870 | Cc1c(-c2[nH]c3sc(C4CCC(N5CCC5)CC4)nc3c2C(C)C)cn2ncnc2c1C (single isomer, unassigned) [Example 217, 2-(4-(azetidin-1-yl)cyclohexyl)-5-(7,8-dimethyl-[1,2,4]triazolo[1,5-a]pyridin-6-yl)-6-isopropyl-4H-pyrrolo[3,2-d]thiazole]
